Tests used:
Aurora-A kinase = target: T1, Aurora-A kinase (Homo sapiens, UniProt O14965); experiment: In vitro Aurora-A kinase inhibition test; type: biochemical
T1 sequence (O14965 1-403): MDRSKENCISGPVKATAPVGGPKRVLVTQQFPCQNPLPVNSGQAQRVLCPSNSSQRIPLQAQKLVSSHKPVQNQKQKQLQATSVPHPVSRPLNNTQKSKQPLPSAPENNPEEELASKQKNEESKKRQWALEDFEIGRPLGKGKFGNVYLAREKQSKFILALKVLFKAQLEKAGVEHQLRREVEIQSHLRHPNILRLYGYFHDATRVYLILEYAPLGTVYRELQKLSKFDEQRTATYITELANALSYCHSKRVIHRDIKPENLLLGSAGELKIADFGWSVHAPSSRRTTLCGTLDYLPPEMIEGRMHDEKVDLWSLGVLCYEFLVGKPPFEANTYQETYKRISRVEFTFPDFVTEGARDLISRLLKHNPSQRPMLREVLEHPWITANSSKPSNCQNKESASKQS

Aurora-B kinase = Aurora-B kinase (Homo sapiens, UniProt Q96GD4); experiment: In vitro Aurora-B kinase inhibition test; type: biochemical; conditions: recombinant Aurora-B, peptide substrate, [γ33P]ATP, 60 minutes at room temperature; read-out: 50% inhibition of enzyme activity at a concentration of
Sequence of Aurora-B kinase (Q96GD4 whole entry): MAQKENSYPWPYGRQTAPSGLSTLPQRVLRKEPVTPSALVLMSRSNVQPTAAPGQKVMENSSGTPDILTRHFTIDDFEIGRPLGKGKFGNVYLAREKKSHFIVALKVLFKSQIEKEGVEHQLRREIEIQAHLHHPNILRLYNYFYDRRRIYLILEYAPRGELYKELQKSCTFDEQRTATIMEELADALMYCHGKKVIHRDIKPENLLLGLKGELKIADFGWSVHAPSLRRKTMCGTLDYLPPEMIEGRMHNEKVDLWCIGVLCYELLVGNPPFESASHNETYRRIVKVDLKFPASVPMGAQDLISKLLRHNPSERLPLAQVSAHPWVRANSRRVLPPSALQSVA
Method: (b) In Vitro Aurora-B Kinase Inhibition Test
This assay determines the ability of a test compound to inhibit serine-threonine kinase activity. DNA encoding Aurora-B may be obtained by total gene synthesis or by cloning. This DNA may then be expressed in a suitable expression system to obtain polypeptide with serine-threonine kinase activity.
For the large scale expression of Aurora-B kinase activity, Sf21 insect cells were grown at 28° C. in TC100 medium supplemented with 10% foetal calf serum (Viralex) and 0.2% F68 Pluronic (Sigma) on a Wheaton roller rig at 3 r.p.m. When the cell density reached 1.2×10^6 cells ml^−1 they were infected with plaque-pure Aurora-B recombinant virus at a multiplicity of infection of 1 and harvested 48 hours later. All subsequent purification steps were performed at 4° C. Frozen insect cell pellets containing a total of 2.0×10^8 cells were thawed and diluted with lysis buffer (50 mM HEPES (N-[2-hydroxyethyl]piperazine-N′-[2-ethanesulphonic acid]) pH 7.5 at 4° C., 1 mM Na3VO4, 1 mM PMSF (phenylmethylsulphonyl fluoride), 1 mM dithiothreitol, 1 μg/ml aprotinin, 1 μg/ml pepstatin, 1 μg/ml leupeptin), using 1.0 ml per 2×10^7 cells. Lysis was achieved using a sonication homogeniser, following which the lysate was centrifuged at 41,000 g for 35 minutes. Aspirated supernatant was pumped onto a 5 mm diameter chromatography column containing 1.0 ml CM sepharose Fast Flow (Amersham Pharmacia Biotech) which had been equilibrated in lysis buffer. A baseline level of UV absorbance for the eluent was reached after washing the column with 12 ml of lysis buffer followed by 7 ml of wash buffer (50 mM HEPES pH 7.4 at 4° C., 1 mM dithiothreitol). Bound Aurora-B B protein was eluted from the column using a gradient of elution buffer (50 mM HEPES pH 7.4 at 4° C., 0.6 M NaCl, 1 mM dithiothreitol, running from 0% elution buffer to 100% elution buffer over 15 minutes at a flowrate of 0.5 ml/min). Elution fractions (1.0 ml) corresponding to the peak in UV absorbance was collected. […]

[1] = test system: human tumour cell line SW620; experiment: In vitro cell proliferation assay (BrdU incorporation); type: cell-based; conditions: SW-620, SW620 cells, 48 hours with compound, BrdU incorporation over 2 hour labelling period, read-out: 50% inhibition of enzyme activity at a concentration of
Description: (c) In Vitro cell Proliferation Assay
This and other assays can be used to determine the ability of a test compound to inhibit the growth of adherent mammalian cell lines, for example the human tumour cell line SW620 (ATCC CCL-227). This assay determines the ability of at test compound to inhibit the incorporation of the thymidine analogue, 5′-bromo-2′-deoxy-uridine (BrdU) into cellular DNA. SW620 or other adherent cells were typically seeded at 1×10^5 cells per well in L-15 media (GIBCO) plus 5% foetal calf serum, 1% L-glutamine (100 μl /well) in 96 well tissue culture treated 96 well plates (Costar) and allowed to adhere overnight. The following day the cells were dosed with compound (diluted from 10 mM stock in DMSO using L-15 (with 5% FCS, 1% L-glutamine). Untreated control wells and wells containing a compound known to give 100% inhibition of BrdU incorporation were included on each plate. After 48 hours in the presence/absence of test compound the ability of the cells to incorporate BrdU over a 2 hour labelling period was determined using a Boehringer (Roche) Cell Proliferation BrdU EUSA kit (cat. No. 1 647 229) according to manufacturers directions. Briefly, 15 μl of BrdU labelling reagent (diluted 1:100 in media—L-15, 5% FCS, 1% L-glutamine) was added to each well and the plate returned to a humidified (+5% CO2) 37° C. incubator for 2 hours. After 2 hours the labelling reagent was removed by decanting and tapping the plate on a paper towel. FixDenat solution (50 μl per well) was added and the plates incubated at room temperature for 45 mins with shaking. The FixDenat solution was removed by decanting and tapping the inverted plate on a paper towel. The plate was then washed once with phosphate buffered saline (PBS) and 100 μl/well of Anti-BrdU-POD antibody solution (diluted 1:100 in antibody dilution buffer) added. The plate was then incubated at room temperature with shaking for 90 min. […] The optical density of the wells was then determined at 690 nm wavelength using a Titertek Multiscan plate reader. […]

SW620 cells = experiment: In vitro cell cycle analysis assay; type: cell-based; conditions: Homo sapiens, SW-620, 24 hours with compound, DNA content by FACS, read-out: 50% inhibition of enzyme activity at a concentration of
Method: (d) In Vitro Cell Cycle Analysis Assay
This assay determines the ability of a test compound to arrest cells in specific phases of the cell cycle. Many different mammalian cell lines could be used in this assay and SW620 cells are included here as an example. SW620 cells were seeded at 7×10^5 cells per T25 flask (Costar) in 5 ml L-15 (5% FCS, 1% L-glutamine). Flasks were then incubated overnight in a humidified 37° C. incubator with 5% CO2. The following day, 5 μl of L-15 (5% FCS, 1% L-glutamine) carrying the appropriate concentration of test compound solubilised in DMSO was added to the flask. A no compound control treatment was also included (0.5% DMSO). The cells were then incubated for a defined time (24 hours) with compound. After this time the media was aspirated from the cells and they were washed with 5 ml of prewarmed (37° C.) sterile PBSA, then detached from the flask by brief incubation with trypsin and followed by resuspension in 5 ml of 1% Bovine Serum Albumin (BSA, Sigma-Aldrich Co.) in sterile PBSA. The samples were then centrifuged at 2200 rpm for 10 min. The supernatant was aspirated to leave 200 μl of the PBS/BSA solution. The pellet was resuspended in this 200 μl of solution by pipetting 10 times to create a single cell suspension. One ml of ice-cold 80% ethanol was slowly added to each cell suspension and the samples stored at −20° C. overnight or until required for staining. […]
Each sample was then syringed 10 times using 21-guage needle. The samples were then transferred to LPS tubes and DNA content per cell analysed by Fluorescence activated cell sorting (FACS) using a FACScan flow cytometer (Becton Dickinson). Typically 30,000 events were counted and recorded using CellQuest v1.1 software (Verity Software). Cell cycle distribution of the population was calculated using Modfit software (Verity Software) and expressed as percentage of cells with 2N (G0/G1), 2N4N (S phase) and with 4N (G2/M) DNA content.

SMILES	IC50 (Aurora-A kinase) [nM]	IC50 (Aurora-B kinase) [nM]	IC50 [1] [nM]	IC50 (SW620 cells) [nM]
CCN(CCO)CCCOc1ccc2c(Nc3cnn(CC(=O)Nc4cccc(F)c4)c3)ncnc2c1 [Compound 187, 2-{4-[(7-{3-[ethyl(2-hydroxyethyl)amino]propoxy}quinazolin-4-yl)amino]-1H-pyrazol-1-yl}-N-(3-fluorophenyl)acetamide]	500	9	1	21
COc1cc2c(Nc3cnn(CC(=O)Nc4cccc(F)c4F)c3)ncnc2cc1OCCCN(CCO)CC(C)C [Compound 60, N-(2,3-difluorophenyl)-2-{4-[(7-{3-[(2-hydroxyethyl)(isobutyl)amino]propoxy}-6-methoxyquinazolin-4-yl)amino]-1H-pyrazol-1-yl}acetamide]	10	8	1	3
COc1cc2c(Nc3cnn(CC(=O)Nc4cccc(F)c4)c3)ncnc2cc1OCCCN1CCC[C@@H]1CO [Compound 27, N-(3-fluorophenyl)-2-{4-[(7-{3-[(2R)-2-(hydroxymethyl)pyrrolidin-1-yl]propoxy}-6-methoxyquinazolin-4-yl)amino]-1H-pyrazol-1-yl}acetamide]	34	5	10	7

— patent US7691867B2, “Chemical compounds” (AstraZeneca AB, priority 2003, dated 2010)
